From patent publication US7960377B2 (priority 2008, dated 2011) come the findings set out here.

One test deals with human CB1 receptor (Homo sapiens, UniProt P21554). Briefly: cell-based.
Another test has as its target T1, rat CB2 receptor (Rattus norvegicus, UniProt Q9QZN9).
T1 sequence (Q9QZN9 1-360): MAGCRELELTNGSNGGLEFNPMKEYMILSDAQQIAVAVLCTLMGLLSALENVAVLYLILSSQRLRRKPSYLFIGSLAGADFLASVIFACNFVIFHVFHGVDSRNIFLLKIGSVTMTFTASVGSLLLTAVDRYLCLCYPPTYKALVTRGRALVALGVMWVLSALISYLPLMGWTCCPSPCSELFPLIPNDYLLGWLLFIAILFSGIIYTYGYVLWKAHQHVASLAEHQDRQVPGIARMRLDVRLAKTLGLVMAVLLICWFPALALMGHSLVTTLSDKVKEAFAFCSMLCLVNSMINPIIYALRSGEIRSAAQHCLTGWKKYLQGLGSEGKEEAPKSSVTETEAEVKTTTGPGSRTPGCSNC
Briefly: cell-based. Format: cell-based.

Chain of human CB1 receptor (P21554 whole entry): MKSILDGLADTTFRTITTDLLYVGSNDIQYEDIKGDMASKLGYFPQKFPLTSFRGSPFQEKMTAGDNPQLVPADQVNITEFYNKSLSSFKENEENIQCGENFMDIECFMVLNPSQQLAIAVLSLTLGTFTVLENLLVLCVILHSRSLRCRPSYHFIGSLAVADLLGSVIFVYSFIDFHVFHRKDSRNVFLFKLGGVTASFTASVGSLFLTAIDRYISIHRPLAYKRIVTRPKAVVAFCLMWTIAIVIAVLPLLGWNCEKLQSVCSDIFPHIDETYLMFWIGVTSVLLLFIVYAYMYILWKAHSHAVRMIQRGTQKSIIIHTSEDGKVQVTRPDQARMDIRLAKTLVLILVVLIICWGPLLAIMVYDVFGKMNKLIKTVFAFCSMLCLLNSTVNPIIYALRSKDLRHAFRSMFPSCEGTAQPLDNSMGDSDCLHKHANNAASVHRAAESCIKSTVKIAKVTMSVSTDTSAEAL

As a reminder, the EC50 is the concentration that produces a half-maximal response. The low end stands for an effect from little substance, the high end for a need for much substance. Consider `COCC1CCCCN1C(=O)c1cnc2c(c1)N(S(=O)(=O)c1ccc(C(F)(F)F)cc1)CCO2` (racemic) [Example 74, +/− (2-(methoxymethyl)-piperidin-1-yl)(1-(4-(trifluoromethyl)phenylsulf-onyl)-2,3-dihydro-1H-pyrido[2,3-b][1,4]oxazin-7-yl)methanone], for which the concentration for a half-maximal effect (EC50) on human CB1 receptor is more than 30000 nM; at rat CB2 receptor it was not above 30 nM.

`COCCCNC(=O)c1cnc2c(c1)N(S(=O)(=O)c1ccc(F)cc1)CCO2` [Example 12]: the EC50 was more than 30000 nM on human CB1 receptor and not above 30 nM on rat CB2 receptor.

As to `CC(C)(C)NC(=O)c1cnc2c(c1)N(S(=O)(=O)c1cccc(F)c1)CCO2` [Example 20, N-tert-butyl-1-(3-fluorophenylsulfonyl)-2,3-dihydro-1H-pyrido[2,3-b][1,4]oxazine-7-carboxamide], the concentration for a half-maximal effect (EC50) at human CB1 receptor was more than 30000 nM; at rat CB2 receptor it was not above 30 nM.

For `O=C(NC1CCCC1)c1cnc2c(c1)N(S(=O)(=O)c1cccc(F)c1)CCO2` [Example 21, N-cyclopentyl-1-(3-fluorophenylsulfonyl)-2,3-dihydro-1H-pyrido[2,3-b][1,4]oxazine-7-carboxamide], the EC50 on human CB1 receptor was more than 30000 nM; on rat CB2 receptor it was not above 30 nM.

`CC(C)(C)NC(=O)c1cnc2c(c1)N(S(=O)(=O)c1ccccc1F)CCO2` [Example 22, N-tert-butyl-1-(2-fluorophenylsulfonyl)-2,3-dihydro-1H-pyrido[2,3-b][1,4]oxazine-7-carboxamide]: the EC50 on human CB1 receptor was more than 30000 nM; at rat CB2 receptor, not above 30 nM.

With `O=C(NC1CCCC1)c1cnc2c(c1)N(S(=O)(=O)c1ccccc1F)CCO2` [Example 23, N-cyclopentyl-1-(2-fluorophenylsulfonyl)-2,3-dihydro-1H-pyrido[2,3-b][1,4]oxazine-7-carboxamide], the EC50 at human CB1 receptor is more than 30000 nM; on rat CB2 receptor, not above 30 nM.

On to `CC(C)(C)NC(=O)c1cnc2c(c1)N(S(=O)(=O)c1ccc(C(F)(F)F)cc1)CCO2` [Example 26, N-tert-butyl-1-(4-(trifluoromethyl)phenylsulf-onyl)-2,3-dihydro-1H-pyrido[2,3-b][1,4]oxazine-7-carboxamide], for which the EC50 on human CB1 receptor is more than 30000 nM; on rat CB2 receptor, not above 30 nM.

Regarding `O=C(NC1CCCC1)c1cnc2c(c1)N(S(=O)(=O)c1ccc(C(F)(F)F)cc1)CCO2` [Example 27, N-cyclopentyl-1-(4-(trifluoromethyl)phenylsulf-onyl)-2,3-dihydro-1H-pyrido[2,3-b][1,4]oxazine-7-carboxamide], the EC50 is more than 30000 nM on human CB1 receptor and not above 30 nM at rat CB2 receptor.

On to `O=C(NCC1CC1)c1cnc2c(c1)N(S(=O)(=O)c1ccc(Cl)cc1)CCO2` [Example 33, 1-(4-chlorophenyl-sulfonyl)-N-(cyclopropyl-methyl)-2,3-dihydro-1H-pyrido[2,3-b][1,4]oxazine-7-carboxamide], for which the EC50 on human CB1 receptor was more than 30000 nM; on rat CB2 receptor it was not above 30 nM.

For `CN(C(=O)c1cnc2c(c1)N(S(=O)(=O)c1ccc(C(F)(F)F)cc1)CCO2)C(C)(C)C` [Example 40, N-tert-butyl-N-methyl-1-(4-(trifluoromethyl)-phenylsulfonyl)-2,3-dihydro-1H-pyrido[2,3-b][1,4]oxazine-7-carboxamide], the EC50 on human CB1 receptor is more than 30000 nM; on rat CB2 receptor it was not above 30 nM.

With `CC(C)(CO)CNC(=O)c1cnc2c(c1)N(S(=O)(=O)c1ccc(Cl)c(Cl)c1)CCO2` [Example 131, 1-(3,4-dichlorophenyl-sulfonyl)-N-(3-hydroxy-2,2-dimethylpropyl)-2,3-dihydro-1H-pyrido[2,3-b][1,4]oxazine-7-carboxamide], the EC50 at rat CB2 receptor was not above 30 nM.

With `O=C(N[C@H]1CCC[C@H]1O)c1cnc2c(c1)N(S(=O)(=O)c1ccc(Cl)c(Cl)c1)CCO2` [Example 132, 1-(3,4-dichlorophenyl-sulfonyl)-N-((1S,2R)-2-hydroxycyclopentyl)-2,3-dihydro-1H-pyrido[2,3-b][1,4]oxazine-7-carboxamide], the EC50 at rat CB2 receptor is not above 30 nM.

On rat CB2 receptor, `COC(=O)C(C)(C)NC(=O)c1cnc2c(c1)N(S(=O)(=O)c1ccc(Cl)c(Cl)c1)CCO2` [Example 136, methyl 2-(1-(3,4-dichlorophenylsulfonyl)-2,3-dihydro-1H-pyrido[2,3-b][1,4]oxazine-7-carboxamido)-2-methylpropanoate] came in with a half-maximal effective concentration (EC50) not above 30 nM.

On to `CCC(C)(C)NC(=O)c1cnc2c(c1)N(S(=O)(=O)N1CCOCC1)CCO2` [Example 142, 1-(morpholinosulfonyl)-N-tert-pentyl-2,3-dihydro-1H-pyrido[2,3-b][1,4]oxazine-7-carboxamide], for which the concentration giving a half-maximal response (EC50) at rat CB2 receptor is not above 30 nM.

In turn, `CC(C)(C)NC(=O)c1cnc2c(c1)N(S(=O)(=O)N1CCCC1)CCO2` [Example 148, N-tert-butyl-1-(pyrrolidin-1-ylsulfonyl)-2,3-dihydro-1H-pyrido[2,3-b][1,4]oxazine-7-carboxamide] registered a concentration giving a half-maximal response (EC50) at rat CB2 receptor not above 30 nM.

Turning to `CC(C)(CO)NC(=O)c1cnc2c(c1)N(S(=O)(=O)N1CCCC1)CCO2` [Example 149, N-(1-hydroxy-2-methylpropan-2-yl)-1-(pyrrolidin-1-ylsulfonyl)-2,3-dihydro-1H-pyrido[2,3-b][1,4]oxazine-7-carboxamide], at rat CB2 receptor, the half-maximal effective concentration (EC50) is not above 30 nM.

With `CC(C)(C)NC(=O)c1cnc2c(c1)N(S(=O)(=O)N1CCC(C(F)(F)F)CC1)CCO2` [Example 150, N-tert-butyl-1-(4-(trifluoromethyl)piperidin-1-ylsulfonyl)-2,3-dihydro-1H-pyrido[2,3-b][1,4]oxazine-7-carboxamide], the EC50 at rat CB2 receptor was not above 30 nM.

Turning to `CC(C)(CO)NC(=O)c1cnc2c(c1)N(S(=O)(=O)N1CCC(C(F)(F)F)CC1)CCO2` [Example 152, N-(1-hydroxy-2-methylpropan-2-yl)-1-(4-(trifluoromethyl)piperidin-1-ylsulfonyl)-2,3-dihydro-1H-pyrido[2,3-b][1,4]oxazine-7-carboxamide], the concentration for a half-maximal effect (EC50) at rat CB2 receptor was not above 30 nM.

Turning to `CC(C)(CO)CNC(=O)c1cnc2c(c1)N(S(=O)(=O)N1CCC(C(F)(F)F)CC1)CCO2` [Example 155, N-(3-hydroxy-2,2-dimethylpropyl)-1-(4-(trifluoromethyl)piperidin-1-ylsulfonyl)-2,3-dihydro-1H-pyrido[2,3-b][1,4]oxazine-7-carboxamide], the EC50 on rat CB2 receptor was not above 30 nM.

In turn, `CC(C)(CO)NC(=O)c1cnc2c(c1)N(S(=O)(=O)N1CCC(F)(F)CC1)CCO2` [Example 157, 1-(4,4-difluoropiperidin-1-ylsulfonyl)-N-(1-hydroxy-2-methylpropan-2-yl)-2,3-dihydro-1H-pyrido[2,3-b][1,4]oxazine-7-carboxamide] showed an EC50 at rat CB2 receptor not above 30 nM.

At rat CB2 receptor, `CC(C)(C)NC(=O)c1cnc2c(c1)N(S(=O)(=O)N1CCC(F)(F)C1)CCO2` [Example 163, N-tert-butyl-1-(3,3-difluoropyrrolidin-1-ylsulfonyl)-2,3-dihydro-1H-pyrido[2,3-b][1,4]oxazine-7-carboxamide] showed an EC50 not above 30 nM.

Compound `CCC(C)(C)NC(=O)c1cnc2c(c1)N(S(=O)(=O)N1CCC(F)(F)C1)CCO2` [Example 164, 1-(3,3-difluoropyrrolidin-1-ylsulfonyl)-N-tert-pentyl-2,3-dihydro-1H-pyrido[2,3-b][1,4]oxazine-7-carboxamide] came in with an EC50 on rat CB2 receptor not above 30 nM.

At rat CB2 receptor, `CC(C)(CO)NC(=O)c1cnc2c(c1)N(S(=O)(=O)N1CCC(F)CC1)CCO2` [Example 168, 1-(4-fluoropiperidin-1-ylsulfonyl)-N-(1-hydroxy-2-methylpropan-2-yl)-2,3-dihydro-1H-pyrido[2,3-b][1,4]oxazine-7-carboxamide] had a concentration for a half-maximal effect (EC50) not above 30 nM.

`CC1CCN(S(=O)(=O)N2CCOc3ncc(C(=O)NCC(C)(C)CO)cc32)CC1` [Example 173, N-(3-hydroxy-2,2-dimethylpropyl)-1-(4-methylpiperidin-1-ylsulfonyl)-2,3-dihydro-1H-pyrido[2,3-b][1,4] oxazine-7-carboxamide] had an EC50 on rat CB2 receptor not above 30 nM.

Regarding `CC(C)(C)NC(=O)c1cnc2c(c1)N(S(=O)(=O)N1Cc3ccccc3C1)CCO2` [Example 183, N-tert-butyl-1-(isoindolin-2-ylsulfonyl)-2,3-dihydro-1H-pyrido[2,3-b][1,4]oxazine-7-carboxamide], the EC50 on rat CB2 receptor was not above 30 nM.

On rat CB2 receptor, `COC(=O)C1(NC(=O)c2cnc3c(c2)N(S(=O)(=O)c2ccc(Cl)c(Cl)c2)CCO3)CCOCC1` [Example 205, methyl 4-(1-(3,4-dichlorophenylsulfonyl)-2,3-dihydro-1H-pyrido[2,3-b][1,4]oxazine-7-carboxamido)tetrahydro-2H-pyran-4-carboxylate] had a half-maximal effective concentration (EC50) not above 30 nM.

Regarding `CC(C)(C)NC(=O)c1noc(-c2cnc3c(c2)N(S(=O)(=O)c2ccc(F)cc2)CCO3)n1` [Example 214, N-tert-butyl-5-(1-(4-fluoro-phenylsulfonyl)-2,3-dihydro-1H-pyrido[2,3-b][1,4]oxazin-7-yl)-1,2,4-oxadiazole-3-carboxamide], the “inverse agonist mark, rat CB2 receptor” value at rat CB2 receptor (asterisk at the compound number) is 181, 188, 189, 190, 195, 200, 201, 202, 204, 211*, 214*, 220, 221,.

Consider `COCCCNC(=O)c1noc(-c2cnc3c(c2)N(S(=O)(=O)c2ccc(F)cc2)CCO3)n1` [Example 216, 5-(1-(4-fluorophenylsulfonyl)-2,3-dihydro-1H-pyrido[2,3-b] [1,4]oxazin-7-yl)-N-(3-methoxypropyl)-1,2,4-oxadiazole-3-carboxamide], for which, at rat CB2 receptor, the EC50 was not above 30 nM.

In the case of `O=S(=O)(c1ccc(F)cc1)N1CCOc2ncc(-c3nc4ncccc4o3)cc21` [Example 217], the 50% effective concentration (EC50) on rat CB2 receptor was not above 30 nM.

`O=S(=O)(c1ccc(C(F)(F)F)cc1)N1CCOc2ncc(-c3ncc(-c4ccccc4)o3)cc21` [Example 227, 7-(5-phenyloxazol-2-yl)-1-(4-(trifluoromethyl)phenyl-sulfonyl)-2,3-dihydro-1H-pyrido[2,3-b][1,4]oxazine] had an EC50 on rat CB2 receptor not above 30 nM.
